According to patent publication US12459951B2, “Compounds that interact with RAS superfamily proteins for treatment of cancers, inflammatory diseases, rasopathies, and fibrotic disease” (SHY Therapeutics, LLC, priority 2022, dated 2025):

Tests used:
TNF-alpha = TNF-alpha Quantification Assay (ELISA), LPS-stimulated RAW 264.7; assay type: cell-based; conditions: Mus musculus, RAW264.7; at 10 μM; read-out: TNFα: % inh.
IL6 = assay: IL-6 Quantification Assay (ELISA), LPS-stimulated RAW 264.7; assay type: cell-based; design: inhibition: dose or concentration left out as unconfirmed; conditions: Mus musculus, RAW264.7; read-out: IL-6: % inh.
Erk1/2 phosphorylation = assay: Erk1/2 Phosphorylation Assay (western blot), Panc-1; assay type: cell-based, human; conditions: at 10 μM, * = activation
In short: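 Phospho-Erk1/2 (Thr202/Tyr204) was detected by western blot in lysates of Panc-1 cells (KRas G12D). These had 6 h, 37° C exposure to 10 μM compound or a dilution series for IC50, in 0.3% DMSO. Cells were either starved overnight in 0.5% FBS with a 15-min 1.5 ng/ml EGF pulse, or kept unstimulated in 10% FBS.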

Akt phosphorylation = assay: Akt Phosphorylation Assay (western blot), Panc-1; assay type: cell-based, human; conditions: at 10 μM, * = activation
In short: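 Phospho-Akt (Ser473) was measured by western blot in lysates of KRas G12D Panc-1 cells exposed to test compound for 6 h at 37 °C, either at 10 μM final with 0.3% DMSO or as serial dilutions for IC50. One format used overnight 0.5% FBS starvation followed by a 15 min pulse of 1.5 ng/ml EGF. The other used cells in 10% FBS with no stimulation.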

| Structure (SMILES) | inhibition at 10 µM (TNF-alpha) [%] | inhibition (IL6) [%] | % inh of Erk1/2 phosphorylation in Panc-1 (Erk1/2 phosphorylation) | % inh of Akt phosphorylation in Panc-1 (Akt phosphorylation) |
| --- | --- | --- | --- | --- |
| Cc1c(-c2ccn(C)n2)cn2nc(-c3nccn3C)nc(Nc3cc4n(n3)CCC4)c12 [Compound 100, N-(5,6-Dihydro-4H-pyrrolo[1,2-b]pyrazol-2-yl)-5-methyl-2-(1-methyl-1H-imidazol-2-yl)-6-(1-methyl-1H-pyrazol-3-yl)pyrrolo[2,1-f][1,2,4]triazin-4-amine] | 0 | 50 to 74 | C* (46-84% activation) | D* (85-100% activation) |
| CO[C@H]1CC[C@@H](Nc2nc(-c3ccccn3)nn3cc(-c4ccn(C(C)C)n4)c(C)c23)C1 (racemic) [Compound 9, rac 6-(1-Isopropyl-1H-pyrazol-3-yl)-N-((1R,3S)-3-methoxycyclopentyl)-5-methyl-2-(pyridin-2-yl)pyrrolo[2,1-f][1,2,4]triazin-4-amine] | 0 | 1 to 24 | 0 (0% inhibition) | 0 (0% inhibition) |
| Cc1c(-c2ccn(C)n2)cn2nc(-c3nccn3C)nc(Nc3ncccn3)c12.Cl [Compound 115, 5-Methyl-2-(1-methyl-1H-imidazol-2-yl)-6-(1-methyl-1H-pyrazol-3-yl)-N-(pyrimidin-2-yl)pyrrolo[2,1-f][1,2,4]triazin-4-amine hydrochloride salt] | 0 | 50 to 74 | C (50-84% inhibition) | D* (85-100% activation) |
| Cc1c(-c2ccn(C)n2)cn2nc(-c3nccn3C)nc(Nc3cc(OC(F)(F)F)ccn3)c12 [Compound 127, 5-Methyl-2-(1-methyl-1H-imidazol-2-yl)-6-(1-methyl-1H-pyrazol-3-yl)-N-(4-(trifluoromethoxy)pyridin-2-yl)pyrrolo[2,1-f][1,2,4]triazin-4-amine] | 0 | 50 to 74 | D* (85-100% activation) | D* (85-100% activation) |
| Cc1c(-c2ccn(C3CC3)n2)cn2nc(-c3nccn3C)nc(Nc3cc(OC(F)(F)F)ccn3)c12 [Compound 138, 6-(1-Cyclopropyl-1H-pyrazol-3-yl)-5-methyl-2-(1-methyl-1H-imidazol-2-yl)-N-(4-(trifluoromethoxy)pyridin-2-yl)pyrrolo[2,1-f][1,2,4]triazin-4-amine] | 0 | 50 to 74 | D* (85-100% activation) | D* (85-100% activation) |
| Cc1c(-c2ccn(C)n2)cn2nc(-c3nccn3C)nc(Nc3cc(OC(F)F)ccn3)c12 [Compound 128, N-(4-(Difluoromethoxy)pyridin-2-yl)-5-methyl-2-(1-methyl-1H-imidazol-2-yl)-6-(1-methyl-1H-pyrazol-3-yl)pyrrolo[2,1-f][1,2,4]triazin-4-amine] | 25 to 49 | 25 to 49 | D* (85-100% activation) | D* (85-100% activation) |
| Cc1c(-c2ccn(C)n2)cn2nc(-c3nccn3C)nc(Cl)c12 [Compound 99, 4-Chloro-5-methyl-2-(1-methyl-1H-imidazol-2-yl)-6-(1-methyl-1H-pyrazol-3-yl)pyrrolo[2,1-f][1,2,4]triazine] | 75 to 100 | 75 to 100 | D* (85-100% activation) | A* (1-25% activation) |
